# From PubChem BioAssay AID588600 (Sanford-Burnham Center for Chemical Genomics, 2011)
# Target: Sentrin-specific protease 7 (Homo sapiens) (UniProt Q9BQF6)
# Assay: SENP7 protease inhibitors, SAR follow-up, biochemical, luminescence, set 2 (AID 588600)
# Conditions: recombinant SENP7, Z-RLRGG-aminoluciferin, 40 min
# Sequence of Sentrin-specific protease 7 (Homo sapiens) (Q9BQF6 706-1050 limits assumed): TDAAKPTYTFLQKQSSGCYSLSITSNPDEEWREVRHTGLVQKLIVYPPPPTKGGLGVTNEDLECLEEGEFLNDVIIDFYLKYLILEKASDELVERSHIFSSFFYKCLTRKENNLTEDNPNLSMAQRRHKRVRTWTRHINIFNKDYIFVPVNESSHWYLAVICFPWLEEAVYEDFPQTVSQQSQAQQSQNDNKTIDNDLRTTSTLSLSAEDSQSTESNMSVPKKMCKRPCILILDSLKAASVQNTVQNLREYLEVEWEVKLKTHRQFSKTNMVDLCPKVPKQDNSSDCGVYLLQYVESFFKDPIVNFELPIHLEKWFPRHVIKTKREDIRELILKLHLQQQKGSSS
row,IC50,Structure (SMILES)
1,2080 nM,COc1ccccc1OCc1nc(-c2ccccc2Cl)no1
2,1650 nM,CN(C)c1ccc(/C=C/c2noc(-c3ccccc3O)n2)cc1
